Assay results reported in the supplement of paper PMC11208160.

Assay: recombinant UMI read abundance after kanamycin selection (control-corrected) (log10(CPM+1)); higher = more efficient recombination; extreme values may be limits of the assay; sequences stand for … in AGTGCAGAGAAAATCGGCCAGTTTTCTCTGCCTGCAGTCCGCATGCCGTGGGACCCCTTGGGTTCTAACCTGTTGCCTAGATTTATGCAGCGGACTGCCTTTCTCCCAAAGTGATAAACCGG…AGGTTGGTTTCACT; site = the 11-nt donor
Method in brief: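 Sequencing read counts were converted to CPM, averaged over two replicates and scaled by control-derived factors. Results are given as log10(CPM+1). The reads covered the donor–target junction of recombinant UMIs from a pooled Escherichia coli screen of donor and donor-binding-loop pairs for the IS621 bridge recombinase.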
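Note: IS621 bridge recombinase in Escherichia coli cells against a fixed T5 target plasmid.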

Sequence	recombinant UMI read abundance (log10)
GATTGTCCATGGACCGGTTTTCCCGGTAATCCGTATTTGCT (site GATTATCCTAG)	0
GATTGTCCATGGACCGGTTTTCCCGGTAATCCGTATTTGCT (site GATTCTCCTAG)	0
GATTGTCCATGGACCGGTTTTCCCGGTAATCCGTATTTGCT (site GATTGTCCTAG)	0
GATTGTCCATGGACCGGTTTTCCCGGTAATCCGTATTTGCT (site GATTTTCCTAG)	0
GATTTCGCATGGACCGGTTTTCCCGGTAATCCGTATTTGTC (site GATTTCGCTGA)	1.51
GATTTGACATGGACCGGTTTTCCCGGTAATCCGTATTTGAC (site GATTAGACTGT)	0
GATTTGACATGGACCGGTTTTCCCGGTAATCCGTATTTGAC (site GATTCGACTGT)	0
GATTTGACATGGACCGGTTTTCCCGGTAATCCGTATTTGAC (site GATTGGACTGT)	0
GATTTGACATGGACCGGTTTTCCCGGTAATCCGTATTTGAC (site GATTTGACTGT)	0.525
GCAAAAACATGGACCGGTTTTCCCGGTAATCCGTATTTGCT (site GCAAAAACTAG)	0.226
GCAAAAACATGGACCGGTTTTCCCGGTAATCCGTATTTGCT (site GCCAAAACTAG)	0
GCAAAAACATGGACCGGTTTTCCCGGTAATCCGTATTTGCT (site GCGAAAACTAG)	0
GCAAAAACATGGACCGGTTTTCCCGGTAATCCGTATTTGCT (site GCTAAAACTAG)	0
GCAAACCCATGGACCGGTTTTCCCGGTAATCCGTATTTGAT (site GCAAACCCTAT)	1.75
GCAAACGCATGGACCGGTTTTCCCGGTAATCCGTATTTGGT (site GCAAACGCTAC)	1.71
GCAAATTCATGGACCGGTTTTCCCGGTAATCCGTATTTGTA (site GCAAATTCTTA)	1.32

Sequence	recombinant UMI read abundance (log10)
GCAACTGCATGGACCGGTTTTCCCGGTAATCCGTATTTGCC (site GCAACTGCTGG)	0
GCAACTGCATGGACCGGTTTTCCCGGTAATCCGTATTTGCC (site GCCACTGCTGG)	0
GCAACTGCATGGACCGGTTTTCCCGGTAATCCGTATTTGCC (site GCGACTGCTGG)	0
GCAACTGCATGGACCGGTTTTCCCGGTAATCCGTATTTGCC (site GCTACTGCTGG)	0
GCAATACCATGGACCGGTTTTCCCGGTAATCCGTATTTGTG (site GCAATACCTCA)	0.00804
GCAATTACATGGACCGGTTTTCCCGGTAATCCGTATTTGTC (site GCAATTACTGA)	0.939
GCACACCCATGGACCGGTTTTCCCGGTAATCCGTATTTGTT (site GCACACCCTAA)	0.67
GCACATCCATGGACCGGTTTTCCCGGTAATCCGTATTTGAC (site ACACATCCTGT)	2.23
GCACATCCATGGACCGGTTTTCCCGGTAATCCGTATTTGAC (site CCACATCCTGT)	0
GCACATCCATGGACCGGTTTTCCCGGTAATCCGTATTTGAC (site GCACATCCTGT)	0
GCACATCCATGGACCGGTTTTCCCGGTAATCCGTATTTGAC (site TCACATCCTGT)	0.745
GCACTTTCATGGACCGGTTTTCCCGGTAATCCGTATTTGGG (site GCACTTTCTCC)	2.31
GCAGACTCATGGACCGGTTTTCCCGGTAATCCGTATTTGTT (site GCAGACTCTAA)	3.03
GCAGATCCATGGACCGGTTTTCCCGGTAATCCGTATTTGCT (site GCAGATCCTAG)	0
GCAGATTCATGGACCGGTTTTCCCGGTAATCCGTATTTGTT (site GAAGATTCTAA)	0
GCAGATTCATGGACCGGTTTTCCCGGTAATCCGTATTTGTT (site GCAGATTCTAA)	2.97
